Laboratory results as given in the NIST ThermoML archive (doi:10.1016/j.jct.2008.10.007).

What was measured:
[1] = xn = mol fraction of the nth substance listed; settings: 298.15 K, 101 kPa, Liquid, Vibrating tube method
[2] = excess molar enthalpy (molar enthalpy of mixing); xn = mol fraction of the nth substance listed; settings: 298.15 K, 101 kPa, Liquid, Calvet calorimetry

ClCCCCCCl [1,5-dichloropentane] + CCCOC=O
Settings | excess molar enthalpy [kcal/mol] | mass density [kg/m3]
[1], x2 = 0.1431 | – | 1073.06
[1], x2 = 0.215 | – | 1061.43
[1], x2 = 0.2831 | – | 1050.01
[1], x2 = 0.3476 | – | 1038.81
[1], x2 = 0.4101 | – | 1027.62
[1], x2 = 0.4756 | – | 1015.48
[1], x2 = 0.5351 | – | 1004.04
[1], x2 = 0.65 | – | 980.9
[1], x2 = 0.7551 | – | 958.34
[1], x2 = 0.8569 | – | 935.09
[1], x2 = 0.9046 | – | 923.69
[1], x2 = 0.953 | – | 911.75
[2], x2 = 0.0772 | 0.0148 | –
[2], x2 = 0.1733 | 0.0261 | –
[2], x2 = 0.2797 | 0.0335 | –
[2], x2 = 0.3611 | 0.0349 | –
[2], x2 = 0.4265 | 0.0339 | –
[2], x2 = 0.48 | 0.0323 | –
[2], x2 = 0.5257 | 0.0301 | –
[2], x2 = 0.5865 | 0.0263 | –
[2], x2 = 0.6476 | 0.0215 | –
[2], x2 = 0.7088 | 0.0163 | –
[2], x2 = 0.7665 | 0.0115 | –
[2], x2 = 0.8266 | 0.00717 | –
[2], x2 = 0.8827 | 0.00406 | –
[2], x2 = 0.9526 | 0.0012 | –

ClCCCl [1,2-dichloroethane] + CCCOC(C)=O
Settings | excess molar enthalpy [kcal/mol] | mass density [kg/m3]
[1], x2 = 0.0403 | – | 1224.14
[1], x2 = 0.0822 | – | 1202.71
[1], x2 = 0.1258 | – | 1181.25
[1], x2 = 0.1723 | – | 1159.34
[1], x2 = 0.2206 | – | 1137.71
[1], x2 = 0.271 | – | 1116.1
[1], x2 = 0.323 | – | 1094.66
[1], x2 = 0.3773 | – | 1073.38
[1], x2 = 0.435 | – | 1051.79
[1], x2 = 0.4925 | – | 1031.26
[1], x2 = 0.5542 | – | 1010.09
[1], x2 = 0.6231 | – | 987.69
[1], x2 = 0.693 | – | 966.04
[1], x2 = 0.7654 | – | 944.7
[1], x2 = 0.8389 | – | 924.07
[1], x2 = 0.9173 | – | 903.11
[2], x2 = 0.0472 | -0.0155 | –
[2], x2 = 0.1047 | -0.0332 | –
[2], x2 = 0.1719 | -0.0559 | –
[2], x2 = 0.2424 | -0.0793 | –
[2], x2 = 0.3127 | -0.102 | –
[2], x2 = 0.3806 | -0.117 | –
[2], x2 = 0.4423 | -0.128 | –
[2], x2 = 0.5012 | -0.132 | –
[2], x2 = 0.5663 | -0.13 | –
[2], x2 = 0.6408 | -0.122 | –
[2], x2 = 0.7169 | -0.107 | –
[2], x2 = 0.8115 | -0.0784 | –
[2], x2 = 0.9076 | -0.0447 | –

CCCOC(=O)CC [propyl propanoate] + ClCCCl
Settings | excess molar enthalpy [kcal/mol] | mass density [kg/m3]
[1], x1 = 0.0347 | – | 1224.28
[1], x1 = 0.0727 | – | 1201.87
[1], x1 = 0.1118 | – | 1180.16
[1], x1 = 0.1538 | – | 1158.1
[1], x1 = 0.1965 | – | 1136.61
[1], x1 = 0.2437 | – | 1114.31
[1], x1 = 0.2932 | – | 1092.38
[1], x1 = 0.3455 | – | 1070.49
[1], x1 = 0.3994 | – | 1049.24
[1], x1 = 0.4599 | – | 1026.87
[1], x1 = 0.5188 | – | 1006.4
[1], x1 = 0.5854 | – | 984.69
[1], x1 = 0.6557 | – | 963.29
[1], x1 = 0.7316 | – | 941.63
[1], x1 = 0.8153 | – | 919.43
[1], x1 = 0.8998 | – | 898.5
[1], x1 = 1 | – | 875.61
[2], x1 = 0.0428 | -0.0129 | –
[2], x1 = 0.1001 | -0.0299 | –
[2], x1 = 0.1671 | -0.0526 | –
[2], x1 = 0.2376 | -0.0758 | –
[2], x1 = 0.3085 | -0.0975 | –
[2], x1 = 0.3736 | -0.115 | –
[2], x1 = 0.4312 | -0.125 | –
[2], x1 = 0.4782 | -0.132 | –
[2], x1 = 0.5177 | -0.133 | –
[2], x1 = 0.5861 | -0.128 | –
[2], x1 = 0.671 | -0.117 | –
[2], x1 = 0.7874 | -0.0853 | –
[2], x1 = 0.9084 | -0.0437 | –

CCCOC=O [propyl methanoate] + ClCCCCCl
Settings | excess molar enthalpy [kcal/mol] | mass density [kg/m3]
[1], x1 = 0.0699 | – | 1119.28
[1], x1 = 0.1344 | – | 1105.73
[1], x1 = 0.2012 | – | 1091.45
[1], x1 = 0.3873 | – | 1050.4
[1], x1 = 0.4476 | – | 1036.71
[1], x1 = 0.5676 | – | 1008.76
[1], x1 = 0.6231 | – | 995.55
[1], x1 = 0.6814 | – | 981.44
[1], x1 = 0.7384 | – | 967.39
[1], x1 = 0.7933 | – | 953.67
[1], x1 = 0.8452 | – | 940.47
[1], x1 = 0.8982 | – | 926.78
[1], x1 = 0.9521 | – | 912.65
[1], x1 = 1 | – | 899.81
[2], x1 = 0.0692 | 0.00932 | –
[2], x1 = 0.1586 | 0.0155 | –
[2], x1 = 0.2416 | 0.0191 | –
[2], x1 = 0.3365 | 0.0184 | –
[2], x1 = 0.4234 | 0.0148 | –
[2], x1 = 0.5005 | 0.01 | –
[2], x1 = 0.5667 | 0.00406 | –
[2], x1 = 0.6288 | -0.00382 | –
[2], x1 = 0.6884 | -0.00837 | –
[2], x1 = 0.7528 | -0.00908 | –
[2], x1 = 0.817 | -0.00908 | –
[2], x1 = 0.8815 | -0.00669 | –
[2], x1 = 0.9414 | -0.00311 | –

ClCCCCCCCl [1,6-dichlorohexane] + CCCOC(=O)CC
Settings | excess molar enthalpy [kcal/mol] | mass density [kg/m3]
[1], x2 = 0.0665 | – | 1052.5
[1], x2 = 0.1321 | – | 1041.17
[1], x2 = 0.1948 | – | 1030.19
[1], x2 = 0.2568 | – | 1019.24
[1], x2 = 0.3171 | – | 1008.42
[1], x2 = 0.3785 | – | 997.31
[1], x2 = 0.556 | – | 964.22
[1], x2 = 0.7294 | – | 930.71
[1], x2 = 0.7852 | – | 919.58
[1], x2 = 0.8399 | – | 908.58
[1], x2 = 0.8955 | – | 897.26
[1], x2 = 0.949 | – | 886.33
[2], x2 = 0.0728 | -0.00598 | –
[2], x2 = 0.1664 | -0.0131 | –
[2], x2 = 0.2656 | -0.0232 | –
[2], x2 = 0.3635 | -0.0354 | –
[2], x2 = 0.4374 | -0.0418 | –
[2], x2 = 0.4861 | -0.0459 | –
[2], x2 = 0.5174 | -0.0483 | –
[2], x2 = 0.5675 | -0.0495 | –
[2], x2 = 0.6298 | -0.0483 | –
[2], x2 = 0.7081 | -0.043 | –
[2], x2 = 0.7895 | -0.0373 | –
[2], x2 = 0.8738 | -0.0237 | –
[2], x2 = 0.9478 | -0.011 | –

CCCOC(C)=O [propyl ethanoate] + ClCCCCCCCl
Settings | mass density [kg/m3]
[1], x1 = 1 | 882.08

ClCCCCCCCl [1,6-dichlorohexane] + CCCOC(C)=O
Settings | excess molar enthalpy [kcal/mol] | mass density [kg/m3]
[1], x2 = 0.0708 | – | 1053.44
[1], x2 = 0.1405 | – | 1042.95
[1], x2 = 0.208 | – | 1032.5
[1], x2 = 0.2725 | – | 1022.22
[1], x2 = 0.3392 | – | 1011.28
[1], x2 = 0.4656 | – | 989.61
[1], x2 = 0.584 | – | 968.14
[1], x2 = 0.6947 | – | 946.95
[1], x2 = 0.8017 | – | 925.34
[1], x2 = 0.8514 | – | 914.87
[1], x2 = 0.902 | – | 903.96
[1], x2 = 0.9502 | – | 893.34
[2], x2 = 0.0861 | 0.00598 | –
[2], x2 = 0.1716 | 0.00478 | –
[2], x2 = 0.2676 | -0.00311 | –
[2], x2 = 0.3149 | -0.00765 | –
[2], x2 = 0.3896 | -0.0146 | –
[2], x2 = 0.4563 | -0.0196 | –
[2], x2 = 0.5169 | -0.0239 | –
[2], x2 = 0.5684 | -0.0253 | –
[2], x2 = 0.5761 | -0.0246 | –
[2], x2 = 0.6268 | -0.0241 | –
[2], x2 = 0.6841 | -0.022 | –
[2], x2 = 0.7455 | -0.0194 | –
[2], x2 = 0.8101 | -0.0153 | –
[2], x2 = 0.8793 | -0.0105 | –
[2], x2 = 0.9463 | -0.00574 | –
